Holding throughout (type): cell-based
The target in experiment [1] is T1, Ode(29-63-8), ACh-nAChR (Oesophagostomum dentatum, UniProt E5KIX9+L7MMZ7+V5J2B2).
T1 construct: full-length cDNAs (UNC-29 497 aa, UNC-63 507 aa, ACR-8 538 aa), pTB-207, cRNA 1:1:1 in Xenopus laevis oocytes; heteropentamer, stoichiometry undetermined; with H. contortus chaperones RIC-3, UNC-50, UNC-74
T1 sequence (V5J2B2 21-497): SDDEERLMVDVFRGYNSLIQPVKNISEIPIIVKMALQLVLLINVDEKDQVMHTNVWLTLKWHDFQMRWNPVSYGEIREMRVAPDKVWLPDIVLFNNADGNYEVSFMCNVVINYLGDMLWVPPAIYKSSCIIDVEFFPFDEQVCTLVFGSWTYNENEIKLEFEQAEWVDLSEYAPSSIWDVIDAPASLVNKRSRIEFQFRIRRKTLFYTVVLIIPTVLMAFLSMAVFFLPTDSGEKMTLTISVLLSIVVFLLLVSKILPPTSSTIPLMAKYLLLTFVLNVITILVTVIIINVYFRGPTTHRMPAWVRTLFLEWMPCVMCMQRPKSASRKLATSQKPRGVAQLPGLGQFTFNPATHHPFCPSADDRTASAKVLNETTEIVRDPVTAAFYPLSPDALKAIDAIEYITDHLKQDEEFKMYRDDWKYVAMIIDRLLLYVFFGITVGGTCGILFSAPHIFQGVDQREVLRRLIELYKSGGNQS
T1 sequence (E5KIX9 22-507): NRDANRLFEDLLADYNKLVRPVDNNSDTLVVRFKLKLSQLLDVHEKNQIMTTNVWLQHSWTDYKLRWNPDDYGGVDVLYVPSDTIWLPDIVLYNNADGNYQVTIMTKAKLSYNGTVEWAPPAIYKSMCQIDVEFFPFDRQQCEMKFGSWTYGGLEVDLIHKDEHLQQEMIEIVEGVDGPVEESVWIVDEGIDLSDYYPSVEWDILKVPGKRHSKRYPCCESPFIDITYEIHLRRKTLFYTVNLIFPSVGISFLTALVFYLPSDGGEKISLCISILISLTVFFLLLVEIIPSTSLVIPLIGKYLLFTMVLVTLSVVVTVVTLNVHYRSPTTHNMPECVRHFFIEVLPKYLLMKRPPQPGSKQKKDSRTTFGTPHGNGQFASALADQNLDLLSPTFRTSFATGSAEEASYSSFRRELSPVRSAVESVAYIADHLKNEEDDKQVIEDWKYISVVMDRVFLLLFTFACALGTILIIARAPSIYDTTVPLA
T1 sequence (L7MMZ7 21-538): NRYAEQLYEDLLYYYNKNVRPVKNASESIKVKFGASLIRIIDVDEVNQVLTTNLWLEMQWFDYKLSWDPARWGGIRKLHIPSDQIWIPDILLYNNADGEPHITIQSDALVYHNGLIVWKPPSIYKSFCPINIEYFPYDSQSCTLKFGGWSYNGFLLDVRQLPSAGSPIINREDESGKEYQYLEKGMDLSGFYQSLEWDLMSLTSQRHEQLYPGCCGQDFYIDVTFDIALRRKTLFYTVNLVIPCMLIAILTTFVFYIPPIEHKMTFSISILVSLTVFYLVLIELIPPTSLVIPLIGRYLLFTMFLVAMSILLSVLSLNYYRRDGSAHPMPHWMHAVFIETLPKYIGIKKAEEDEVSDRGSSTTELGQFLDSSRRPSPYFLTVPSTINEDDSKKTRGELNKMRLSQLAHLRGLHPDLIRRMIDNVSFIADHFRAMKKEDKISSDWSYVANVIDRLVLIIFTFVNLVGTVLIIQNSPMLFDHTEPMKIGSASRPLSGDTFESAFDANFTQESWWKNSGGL
In words: two-electrode voltage clamp, Xenopus oocytes, agonist dose-response. From the text: two-electrode voltage clamp, Xenopus oocytes, agonist dose-response on Ode(29-63-8), ACh-nAChR

Experiment [2] concerns the target T2, Ode(29-63-8-38), Lev-nAChR (Oesophagostomum dentatum, UniProt E5KIX9+L7MMZ7+V5J2B2+V5J336).
T2 construct: full-length cDNAs (UNC-29 497 aa, UNC-63 507 aa, ACR-8 538 aa, UNC-38 507 aa), pTB-207, cRNA 1:1:1:1 in Xenopus laevis oocytes; heteropentamer, stoichiometry undetermined; with H. contortus chaperones RIC-3, UNC-50, UNC-74
The description is as above. From the text:
two-electrode voltage clamp, Xenopus oocytes, agonist dose-response on Ode(29-63-8-38), Lev-nAChR

Experiment [3] addresses T1, Ode(29-63-8), ACh-nAChR. As to the kind of experiment: voltage clamp, oocytes; single concentration current. To be noted: agonist, 30 µM.

T2 sequence (V5J336 21-507, one chain of several): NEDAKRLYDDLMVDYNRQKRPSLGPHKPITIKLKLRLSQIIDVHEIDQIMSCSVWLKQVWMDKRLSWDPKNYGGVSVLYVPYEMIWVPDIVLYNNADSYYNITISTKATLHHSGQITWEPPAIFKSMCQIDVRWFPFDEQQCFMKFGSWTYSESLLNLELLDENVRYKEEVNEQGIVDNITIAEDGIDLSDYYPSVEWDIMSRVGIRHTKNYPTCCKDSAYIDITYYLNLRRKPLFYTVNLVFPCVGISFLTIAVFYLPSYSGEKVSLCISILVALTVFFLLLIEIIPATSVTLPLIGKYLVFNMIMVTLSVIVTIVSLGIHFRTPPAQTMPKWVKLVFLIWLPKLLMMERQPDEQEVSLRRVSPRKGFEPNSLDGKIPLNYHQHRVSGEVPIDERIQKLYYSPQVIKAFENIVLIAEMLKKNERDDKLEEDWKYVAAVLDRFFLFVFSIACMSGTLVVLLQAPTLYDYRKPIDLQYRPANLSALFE

Broadly, the EC50 is the concentration giving half of the maximal effect. With `CC(=O)OCC[N+](C)(C)C` [acetylcholine], the EC50 on Ode(29-63-8), ACh-nAChR [1] is 3.5 ± 0.2 µM; in experiment [2] it was 4.2 ± 0.2 µM.

Turning to `C[N+](C)(CCOc1ccccc1)Cc1ccccc1` [bephenium], the “voltage clamp, oocytes; single concentration current” value at Ode(29-63-8), ACh-nAChR [3] was “responses to all the agonists we tested, including bephenium and thenium”.
